One assay addresses T1, glutathione S-transferase (GST)-fused full-length human Syk protein (Homo sapiens, UniProt P43405).
T1 construct: (GST)-fused full-length human Syk protein; GST (glutathione S-transferase); purchased Carna Biosciences
In words: Syk enzyme assay. The assay is classed as biochemical. Particulars: Syk enzyme assay, Test Example 1; read-out: IC50 of Syk-inhibitory activity. How it is done:
A glutathione S-transferase (GST)-fused full-length human Syk protein (Carna Biosciences), which had been generated using a Baculovirus expression system, was used in the Syk enzyme assay.
15 μl of a reaction solution (1.2 ng Syk, 20 mM HEPES, 10 mM MgCl2, 50 mM NaCl, 2 mM DTT, 0.05% BSA, pH 7.0) containing a Syk protein and a predetermined concentration of a test compound was shaken for 2 minutes, and it was then left at rest at room temperature for 13 minutes. Thereafter, 5 μl of Biotin-EDPDYEWPSA-NH2 (final concentration: 0.4 μM) serving as a substrate peptide and 5 μl of ATP (final concentration: 27 μM) were added to the reaction solution, and the obtained mixture was then shaken for 2 minutes. The reaction solution was further left at rest at room temperature for 40 minutes, so as to carry out an enzyme reaction.
Thereafter, 50 μl of a reaction termination solution [5 μg/ml Streptavidin, 0.18 μg/ml PT66-K, 30 mM HEPES (pH 7.0), 150 mM KF, 75 mM EDTA, 0.15% BSA, 0.075% Tween20], which contained Streptavidin-Xlent (Cisbio) and Mab PT66-K (Cisbio), was added to the reaction solution to terminate the enzyme reaction. At the same time, the reaction solution was left at rest at room temperature for 1 hour, so as to carry out an antigen-antibody reaction. Thereafter, using EnVision (PerkinElmer), the time-resolved fluorescence was measured at 615 nm and 665 nm, so that the phosphorylation of the substrate peptide was measured.
In addition, the following are standards for evaluating IC50 of Syk-inhibitory activity used in Table 21. • A: Up to 10 nM • B: 10 to 50 nM • C: 50 to 100 nM • D: 100 to 1000 nM The set of numbers (XYZ-xyz) given in each Example number column indicates the corresponding Example number (Example XYZ-xyz) in Table 21.
For `NC(=O)c1cc(F)c(N[C@@H]2CCCC[C@@H]2N)nc1Nc1cnc(-n2cccn2)c(-n2ccnn2)c1` [Example 006-450, 2-((6-(1H-pyrazol-1-yl)-5-(1H-1,2,3-triazol-1-yl)pyridin-3-yl)amino)-6-(((1R,2S)-2-aminocyclohexyl)amino)-5-fluoronicotinamide], the IC50 (commonly the concentration needed to halve the response being measured) fell in the range of 100 to 1000 nM.

As to `CCOCCOCCOc1ncc(Nc2nc(N[C@@H]3CCCC[C@@H]3N)c(F)cc2C(N)=O)c2ccccc12` (relative stereo) [Example 004-152, 6-(cis-2-aminocyclohexylamino)-2-((1-(2-(2-ethoxyethoxy)ethoxy)isoquinolin-4-yl)amino)-5-fluoronicotinamide], the IC50 was in the range of 100 to 1000 nM.

For the compound `NC(=O)c1cc(F)c(NC2CCCC[C@@H]2N)nc1Nc1cnc2c(NS(=O)(=O)c3ccc(C(F)(F)F)cc3)cccc2c1` (stereo partly drawn) [Example 41-7, 6-(cis-2-aminocyclohexylamino)-5-fluoro-2-((8-(4-(trifluoromethyl)phenylsulphonamide)-quinolin-3-yl)amino)nicotinamide], the IC50 was 100 to 1000 nM.

Regarding `COCC(C)Oc1ccc2cc(Nc3nc(NC4CCCCC4N)c(F)cc3C(N)=O)ccc2n1` (centres unmarked) [Example 002-098], the IC50 is < 10 nM.

Turning to `CNc1cc(Nc2nc(N[C@@H]3CCCC[C@@H]3N)c(F)cc2C(N)=O)cc2cccnc12` (relative stereo) [Example 004-136, 6-(cis-2-aminocyclohexylamino)-5-fluoro-2-((8-(methylamino)quinolin-6-yl)amino)-nicotinamide], the IC50 is < 10 nM.

As for `Cc1ccccc1Nc1nc(NCCN)c(F)cc1C(N)=O` [Example 008-003], the IC50 lay within 100 to 1000 nM.

`NC(=O)c1cc(F)c(NC2CCCCC2N)nc1Nc1ccc(N2CCCC2)nc1` (centres unmarked) [Example 002-078]: the IC50 was in the range of 10 to 50 nM.

Take `CC(C)[C@@H](Nc1nc(Nc2ccc3ncccc3c2)c(C(N)=O)cc1F)C(N)=O` [Example 012-032]: the IC50 is 50 to 100 nM.

For `NC(=O)c1cc(F)c(N[C@H](Cc2cnc[nH]2)C(N)=O)nc1Nc1ccc2ncccc2c1` [Example 012-035, (R)-6-((1-amino-3-(1H-imidazol-5-yl)-1-oxopropan-2-yl)amino)-5-fluoro-2-((quinolin-6-yl)amino)nicotinamide], the IC50 lay in the range of 100 to 1000 nM.

`Cn1nnc2cc(C(=O)Nc3cncc(Nc4nc(N[C@@H]5CCCC[C@@H]5N)c(F)cc4C(N)=O)c3)ccc21` (relative stereo) [Example 027-042, N-(5-(6-(cis-2-aminocyclohexylamino)-3-carbamoyl-5-fluoropyridin-2-yl)aminopyridin-3-yl)-1-methyl-1H-benzo[d][1,2,3]triazol-5-carboxamide]: the IC50 was < 10 nM.

As to `CC(C)C[C@@H](Nc1nc(Nc2ccc3c(c2)c(N2CCOCC2)nn3C)c(C(N)=O)cc1F)[C@H](C)N` [Example 006-562, 6-(((2S,3R)-2-amino-5-methylhexan-3-yl)amino)-5-fluoro-2-((1-methyl-3-morpholino-1H-indazol-5-yl)amino)nicotinamide], the IC50 was < 10 nM.

Turning to `NC(=O)c1cc(F)c(NC2CCCCC2N)nc1Nc1ccnc(-c2cccc3cnccc23)c1` (centres unmarked) [Example 002-180], the IC50 is 50 to 100 nM.

Consider `COCCn1cc2ccc(Nc3nc(NC4CCCCC4N)c(F)cc3C(N)=O)cc2n1` (centres unmarked) [Example 002-044], for which the IC50 was in the range of 10 to 50 nM.

Regarding `NC(=O)c1cc(F)c(NC2CCCCC2N)nc1Nc1ccc2cc(-n3cccn3)cnc2c1` (centres unmarked) [Example 002-143], the IC50 is < 10 nM.

Take `CC(C)C[C@@H](CN)Nc1nc(Nc2ccc3ncccc3c2)c(C(N)=O)cc1F` [Example 006-203, (S)-6-((1-amino-4-methylpentan-2-yl)amino)-5-fluoro-2-((quinolin-6-yl)amino)nicotinamide]: the IC50 was in the range of 100 to 1000 nM.

Take `CCC[C@@H](Nc1nc(Nc2cccc3cccnc23)c(C(N)=O)cc1F)[C@H](C)N` [Example 006-243, 6-(((2S,3R)-2-aminohexan-3-yl)amino)-5-fluoro-2-((quinolin-8-yl)amino)nicotinamide]: the IC50 was 10 to 50 nM.

With `CCOCCOCCOc1nccc2c(Nc3nc(N[C@@H]4CCCC[C@@H]4N)c(F)cc3C(N)=O)cccc12` (relative stereo) [Example 004-158, 6-(cis-2-aminocyclohexylamino)-2-((1-(2-(2-ethoxyethoxy)ethoxy)isoquinolin-5-yl)amino)-5-fluoronicotinamide], the IC50 was in the range of 10 to 50 nM.

`NC(=O)c1cc(F)c(N[C@@H]2CCCC[C@@H]2N)nc1Nc1cncc(-c2ccc(OCCN3CCOCC3)cc2)c1` (relative stereo) [Example 004-112, 6-(cis-2-aminocyclohexylamino)-5-fluoro-2-((5-(4-(2-morpholinoethoxy)phenyl)pyridin-3-yl)amino)nicotinamide]: the IC50 was < 10 nM.

As to `NC(=O)c1cc(F)c(NC[C@@H](N)c2cccnc2)nc1Nc1ccc2ncccc2c1` [Example 014-018, (S)-6-((2-amino-2-(pyridin-3-yl)ethyl)amino)-5-fluoro-2-((quinolin-6-yl)amino)nicotinamide], the IC50 is 10 to 50 nM.

Take `Cc1cc(Nc2nc(N[C@@H]3CCCC[C@@H]3N)c(F)cc2C(N)=O)cs1` (relative stereo) [Example 004-057]: the IC50 was < 10 nM.

For the compound `NC(=O)c1cc(F)c(N[C@@H]2CCCC[C@@H]2N)nc1Nc1cncc(Oc2ccccc2)c1` [Example 004-041], the half-inhibitory concentration (IC50) was in the range of 50 to 100 nM.

For `COc1nccc2c(Nc3nc(N[C@@H]4CCCC[C@@H]4N)c(F)cc3C(N)=O)cccc12` (relative stereo) [Example 004-155, 6-(cis-2-aminocyclohexylamino)-5-fluoro-2-((1-methoxyisoquinolin-5-yl)amino)-nicotinamide], the IC50 was < 10 nM.

Turning to `CCOCCOCCOc1nccc2cc(Nc3nc(N[C@@H]4CCCC[C@@H]4N)c(F)cc3C(N)=O)ccc12` (relative stereo) [Example 004-169, 6-(cis-2-aminocyclohexylamino)-2-((1-(2-(2-ethoxyethoxy)ethoxy)isoquinolin-6-yl)amino)-5-fluoronicotinamide], the IC50 is < 10 nM.

Consider `COCCNc1cccc2cc(Nc3nc(N[C@@H]4CCCC[C@@H]4N)c(F)cc3C(N)=O)cnc12` [Example 004-122], for which the IC50 is < 10 nM.

For the compound `COc1ncc(Nc2nc(NC3CCCCC3N)c(F)cc2C(N)=O)cc1-c1ccoc1` (centres unmarked) [Example 002-151], the IC50 was 10 to 50 nM.

With `CC(C)(C)[C@@H](Nc1nc(Nc2ccc3ncccc3c2)c(C(N)=O)cc1F)C(N)=O` [Example 012-037], the IC50 was in the range of 50 to 100 nM.

As to `CC(C)C[C@@H](Nc1nc(Nc2ccc3c(c2)c(-n2cccn2)nn3C)c(C(N)=O)cc1F)[C@H](C)N` [Example 006-595, 6-(((2S,3R)-2-amino-5-methylhexan-3-yl)amino)-5-fluoro-2-((1-methyl-3-(1H-pyrazol-1-yl)-1H-indazol-5-yl)amino)nicotinamide], the IC50 is < 10 nM.

For the compound `Cc1ccc(-c2cc(Nc3nc(NC4CCCCC4N)c(F)cc3C(N)=O)ccn2)o1` (centres unmarked) [Example 002-063], the IC50 was < 10 nM.

For `Cc1ccccc1C(=O)Nc1cncc(Nc2nc(NC3CCCCC3N)c(F)cc2C(N)=O)c1` (centres unmarked) [Example 027-023], the IC50 was 50 to 100 nM.

As to `NC(=O)c1cc(F)c(N[C@@H]2CCCC[C@@H]2N)nc1Nc1cncc(-n2ccnc2)c1` (relative stereo) [Example 006-127, 2-((5-(1H-imidazol-1-yl)pyridin-3-yl)amino)-6-((cis-2-aminocyclohexyl)amino)-5-fluoronicotinamide], the IC50 was 10 to 50 nM.

`NC(=O)c1cc(F)c(NC2CCCC[C@@H]2N)nc1Nc1cnc2c(NS(=O)(=O)Cc3ccccc3)cccc2c1` (stereo partly drawn) [Example 41-9, 6-(cis-2-aminocyclohexylamino)-5-fluoro-2-((8-(phenylmethylsulphonamide)quinolin-3-yl)amino)nicotinamide]: the IC50 is 10 to 50 nM.

With `C[C@H](Nc1nc(Nc2ccc3ncccc3c2)c(C(N)=O)cc1F)[C@@H](C)N` [Example 006-225, 6-(((2S,3R)-3-aminobutan-2-yl)amino)-5-fluoro-2-((quinolin-6-yl)amino)nicotinamide], the IC50 was 10 to 50 nM.

Still in this assay, the particulars now being: read-out: Syk-inhibitory activity (IC50).
With `NC(=O)c1cncc(Nc2nc(N[C@@H]3CCCC[C@@H]3N)c(F)cc2C(N)=O)c1` (relative stereo) [Example 28, 2-(5-aminocarbonylpyridin-3-ylamino)-6-(cis-2-aminocyclohexylamino)-5-fluoronicotinamide], the IC50 is ≤ 1000 nM.

For the compound `Cc1cc(C)cc(Nc2nc(NCCN)c(F)cc2C(N)=O)c1` [Example 8-2, 6-((2-aminoethyl)amino)-2-((3,5-dimethylphenyl)amino)-5-fluoro-nicotinamide], the IC50 is ≤ 1000 nM.

Consider `COc1cc(Nc2nc(N3CC[C@@H](N)C3)c(F)cc2C(N)=O)cc(OC)c1` [Example 17, 6-((3R)-3-aminopyrrolidin-1-yl)-2-(3,5-dimethoxyphenylamino)-5-fluoronicotinamide], for which the IC50 was ≤ 1000 nM.

The values are drawn from US8895585B2, “Nicotinamide derivative or salt thereof” (FUJIFILM Corporation, priority 2010, dated 2014).
